Experiments:
VERO cells (ATCC CRL-81) = test: Vero cell toxicity; format: cell-based; conditions: Chlorocebus sabaeus, Vero; 72 hours exposure
Experimental: Cytotoxicity for a mammalian cell line was determined by exposing VERO cells (ATCC CRL-81) to serial dilutions of test compounds for 72 hours, followed by addition of resazurin and measurement of fluorescence after 4 hours incubation (Choules, et al., Antimnicrob. Agents Chemother. 2019, 63, e02204-02218).

MTB H37Rv ATCC 27294 = test: MIC, microplate Alamar Blue assay (MABA); format: cell-based, Mycobacterium tuberculosis; conditions: for MIC90: Mycobacterium tuberculosis, MTB H37Rv ATCC 27294, microplate Alamar Blue assay, lowest concentration giving ≥90% reduction in fluorescence
DPX2 cells = conditions: for DPX2 Viability @ 6.25 μM: 24 h; for DPX2 Viability @ 25 μM: human

SMILES | IC50 (VERO cells (ATCC CRL-81)) [µM] | MIC90 MABA Rel to RMP (MTB H37Rv ATCC 27294) | MIC90 (MTB H37Rv ATCC 27294) [µM] | DPX2 Viability @ 6.25 μM (DPX2 cells) [%] | DPX2 Viability @ 25 μM (DPX2 cells) [%]
CO[C@H]1/C=C/O[C@@]2(C)Oc3c(C)c(O)c4c(=O)c(c5oc6cc(N7CCN(C8CCN(C)CC8)CC7)cc(OCc7ccc(CN8CCOCC8)cc7)c6nc-5c4c3C2=O)NC(=O)/C(C)=C\C=C\[C@H](C)[C@H](O)[C@@H](C)[C@@H](O)[C@@H](C)[C@H](OC(C)=O)[C@@H]1C [Compound 17h, (7S,9E,11S,12R,13S,14R,15R,16R,17S,18S,19E,21Z)-2,15,17-trihydroxy-11-methoxy-3,7,12,14,16,18,22-heptamethyl-30-[4-(1-methylpiperidin-4-yl)piperazin-1-yl]-32-{[4-(morpholin-4-ylmethyl)phenyl]methoxy}-6,23,37-trioxo-8,27,38-trioxa-24,34-diazahexacyclo-[23.11.1.1^4,7.0^5,36.0^26,35.0^28,33]octatriaconta-1,3,5(36)9,19,21,25,28,30,32,34-undecaen-13-yl acetate] | > 10 | 1.3 | 0.035 | 94 | 83
CO[C@H]1/C=C/O[C@@]2(C)Oc3c(C)c(O)c4c(=O)c(c5oc6cc(N7CCN(C(=O)c8ccccc8)CC7)cc(OCc7ccc(CN8CCOCC8)cc7)c6nc-5c4c3C2=O)NC(=O)/C(C)=C\C=C\[C@H](C)[C@H](O)[C@@H](C)[C@@H](O)[C@@H](C)[C@H](OC(C)=O)[C@@H]1C [Compound 17m, (7S,9E,11S,12R,13S,14R,15R,16R,17S,18S,19E,21Z)-30-(4-benzoylpiperazin-1-yl)-2,15,17-trihydroxy-1-methoxy-3,7,12,14,16,18,22-heptamethyl-32-{[4-(morpholin-4-ylmethyl)phenyl]methoxy}-6,23,37-trioxo-8,27,38-trioxa-24,34-diazahexacyclo-[23.11.1.1^4,7.0^5,36.0^26,35.0^28,33]octatriaconta-1,3,5(36)9,19,21,25,28,30,32,34-undecaen-13-yl acetate] | > 10 | 0.34 | 0.017 | 89 | 78
CO[C@H]1/C=C/O[C@@]2(C)Oc3c(C)c(O)c4c(=O)c(c5oc6cc(N7CCCC(C(=O)Nc8ccc(Cl)cc8)C7)cc(C)c6nc-5c4c3C2=O)NC(=O)/C(C)=C\C=C\[C@H](C)[C@H](O)[C@@H](C)[C@@H](O)[C@@H](C)[C@H](OC(C)=O)[C@@H]1C (stereo partly drawn) [Compound 28, (7S,9E,11S,12R,13S,14R,15R,16R,17S,1S,19E,21Z)-30-{3-[(4-Chlorophenyl)carbamoyl]piperidin-1-yl}-2,15,17-trihydroxy-11-methoxy-3,7,12,14,16,18,22,32-octamethyl-6,23,37-trioxo-8,27,38-trioxa-24,34-diazahexacyclo[23.11.1.1^4,7.0^5,36.0^26,35.0^28,33]octatriaconta-1(36)2,4,9,19,21,25,28,30,32,34-undecaen-13-yl acetate] | > 10 | 0.16 | 0.0044 | 110 | 109

— patent US20250188092A1, “RIFAMYCIN ANALOGS” (THE REGENTS OF THE UNIVERSITY OF MICHIGAN, priority 2021, published 2025)
